In the supplement of paper PMC10331698:
± gives the standard deviation of the averaged measurements.

What was measured:
Assay in all cases: level (log10 ratio to DMSO vehicle control); higher = higher biomarker level / cell amount than vehicle control
Conditions in all cases: in DMSO
[1] = compound: FC(F)(F)C(F)(F)C(F)(F)C(F)(F)C(F)(F)C(F)(F)C(F)(F)CCI [1-Iodo-1H,1H,2H,2H-perfluorononane]
Method: (§1)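 BioMAP Diversity Plus panel of 12 human primary cell co-culture systems (3C, 4H, LPS, SAg, BT, BF4T, BE3C, CASM3C, HDF3CGF, KF3CT, MyoF, Mphg). Compounds were added 1 h before stimulation and left for 24 h (MyoF 48 h; BT 72 h for soluble read-outs or 6 d for IgG). Biomarkers were read by ELISA, cytotoxicity by SRB, PBMC viability and proliferation by Alamar Blue. Each well value was divided by the mean of 8 DMSO control wells on the same plate and log10 transformed; duplicate blinded samples were tested at 4 concentrations.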

[2] = compound: C=C(C)C(=O)OCC(F)(F)C(F)(F)C(F)(F)C(F)(F)C(F)(F)C(F)(F)C(F)(F)F
Method: as §1

1H,1H-Heptafluorobutanol = compound: OCC(F)(F)C(F)(F)C(F)(F)F [1H,1H-Heptafluorobutanol]
Method: as §1

[3] = compound: O=C(O)CCC(F)(F)C(F)(F)C(F)(F)F [3:3 Fluorotelomer carboxylic acid]
Method: as §1

[4] = compound: C=CC(=O)OCCC(F)(F)C(F)(F)C(F)(F)C(F)(F)F [2-(Perfluorobutyl)ethyl acrylate]
Method: as §1

[5] = compound: O=S(=O)(O)C(F)(F)C(F)(F)C(F)(F)C(F)(F)F [Perfluorobutanesulfonic acid]
Method: as §1

[6] = compound: O=P(O)(O)CCC(F)(F)C(F)(F)C(F)(F)C(F)(F)C(F)(F)C(F)(F)C(F)(F)C(F)(F)F [((Perfluorooctyl)ethyl)phosphonic acid]
Method: as §1

Row | Test System | level (log10) ([1]; 6700 nM) | level (log10) ([1]; 20000 nM) | level (log10) ([2]; 6700 nM) | level (log10) ([2]; 20000 nM) | level (log10) (1H,1H-Heptafluorobutanol; 6700 nM) | level (log10) (1H,1H-Heptafluorobutanol; 20000 nM) | level (log10) (1H,1H-Heptafluorobutanol; 60000 nM) | level (log10) ([3]; 6700 nM) | level (log10) ([3]; 20000 nM) | level (log10) ([3]; 60000 nM) | level (log10) ([4]; 6700 nM) | level (log10) ([4]; 20000 nM) | level (log10) ([4]; 60000 nM) | level (log10) ([5]; 6700 nM) | level (log10) ([5]; 20000 nM) | level (log10) ([5]; 60000 nM) | level (log10) ([6]; 6700 nM) | level (log10) ([6]; 20000 nM) | level (log10) ([6]; 60000 nM)
1 | HDF3CGF:SRB | 0.016 ± 0.045 | -0.052 ± 0.071 | 0.0255 ± 0.11 | 0.044 ± 0.12 | -0.047 ± 0.067 | 0.0415 ± 0.011 | 0.025 ± 0.033 | 0.029 ± 0.061 | 0.0105 ± 0.0078 | 0.011 ± 0.05 | -0.0125 ± 0.057 | -0.092 ± 0.073 | -0.0805 ± 0.06 | 0.018 ± 0.03 | 0.023 ± 0.013 | 0.004 ± 0.033 | 0.0285 ± 0.021 | -0.0095 ± 0.033 | -0.011 ± 0.033
2 | HDF3CGF:TIMP-1 | -0.0035 ± 0.0035 | 0.047 ± 0.0085 | 0.041 ± 0.038 | 0.036 ± 0.03 | -0.021 ± 0.017 | -0.028 ± 0.0099 | -0.048 ± 0.11 | 0.0025 ± 0.019 | 0.004 | 0.0015 ± 0.0035 | -0.0375 ± 0.033 | -0.0285 ± 0.0064 | -0.053 ± 0.03 | -0.032 ± 0.064 | 0.0125 ± 0.0078 | 0.0195 ± 0.011 | -0.03 ± 0.0057 | -0.06 ± 0.018 | -0.0575 ± 0.044
3 | HDF3CGF:TIMP-2 | 0.0165 ± 0.011 | 0.0055 ± 0.0064 | 0.0535 ± 0.0092 | 0.0035 ± 0.056 | -0.0055 ± 0.025 | 0.018 ± 0.033 | -0.029 ± 0.037 | -0.0075 ± 0.023 | -0.0015 ± 0.0035 | -0.0195 ± 0.0064 | -0.0725 ± 0.057 | -0.0805 ± 0.047 | -0.0995 ± 0.035 | 0.0135 ± 0.037 | 0.017 ± 0.023 | 0.031 ± 0.014 | 0.0645 ± 0.013 | 0.0485 ± 0.0021 | -0.029 ± 0.018
4 | KF3CT:CCL2/MCP-1 | 0.01 ± 0.03 | 0.0795 ± 0.07 | -0.016 ± 0.025 | 0.0325 ± 0.03 | 0.0035 ± 0.005 | 0.006 ± 0.0042 | 0.0235 ± 0.015 | -0.005 ± 0.025 | -0.0135 ± 0.016 | 0.0225 ± 0.046 | -0.036 ± 0.0099 | -0.0515 ± 0.0035 | -0.028 ± 0.086 | -0.032 ± 0.017 | -0.0095 ± 0.026 | 0.0135 ± 0.083 | -0.0355 ± 0.0064 | -0.0255 ± 0.0078 | -0.038 ± 0.042
5 | KF3CT:CD54/ICAM-1 | -0.0045 ± 0.0092 | -0.0175 ± 0.025 | 0.0045 ± 0.019 | -0.018 ± 0.031 | 0.009 ± 0.0099 | -0.0095 ± 0.0092 | 0.019 ± 0.0014 | -0.0055 ± 0.0092 | -0.008 ± 0.0014 | 0.001 ± 0.028 | -0.0085 ± 0.0092 | -0.0245 ± 0.0078 | -0.054 ± 0.0099 | 0.0015 ± 0.029 | 0.0225 ± 0.012 | 0.0005 ± 0.00071 | 0.019 ± 0.034 | 0.013 ± 0.018 | -0.0055 ± 0.049
6 | KF3CT:CXCL8/IL-8 | 0.013 ± 0.0071 | 0.0605 ± 0.0092 | -0.0025 ± 0.019 | 0.009 ± 0.033 | -0.02 ± 0.0014 | -0.021 ± 0.0028 | -0.0025 ± 0.016 | 0.0005 ± 0.022 | -0.0035 ± 0.0092 | -0.0005 ± 0.0064 | -0.0095 ± 0.021 | -0.003 ± 0.0014 | -0.0105 ± 0.018 | -0.031 ± 0.02 | -0.002 ± 0.0042 | 0.004 ± 0.0071 | 0.022 ± 0.0014 | 0.0245 ± 0.0078 | 0.032 ± 0.0028
7 | KF3CT:CXCL9/MIG | 0.0045 ± 0.00071 | -0.01 ± 0.025 | 0.007 ± 0.0028 | 0.006 ± 0.0028 | -0.0015 ± 0.0021 | 0.002 ± 0.0028 | 0.0055 ± 0.005 | 0 ± 0.0099 | 0.0055 ± 0.015 | 0.005 ± 0.0028 | -0.0035 ± 0.0021 | 0.008 ± 0.0042 | -0.0235 ± 0.015 | 0.0185 ± 0.029 | 0.021 ± 0.017 | 0.0345 ± 0.0078 | -0.0095 ± 0.0078 | 0 ± 0.0071 | -0.0225 ± 0.0092
8 | KF3CT:CXCL10/IP-10 | -0.0065 ± 0.005 | -0.0235 ± 0.0092 | 0.0075 ± 0.005 | -0.015 ± 0.011 | 0.004 ± 0.0042 | -0.0025 ± 0.016 | 0.012 ± 0.0071 | -0.0015 ± 0.0035 | -0.008 ± 0.0057 | -0.0045 ± 0.0035 | -0.009 ± 0.0057 | -0.0125 ± 0.022 | -0.0285 ± 0.0078 | 0.0305 ± 0.025 | 0.0385 ± 0.028 | 0.0405 ± 0.019 | 0.0105 ± 0.028 | 0.023 ± 0.013 | 0.0205 ± 0.005
9 | KF3CT:IL-1alpha | -0.01 ± 0.0071 | 0.019 ± 0.047 | -0.014 ± 0.023 | 0.0015 ± 0.0092 | 0 ± 0.0042 | 0 ± 0.0014 | -0.018 ± 0.0057 | -0.0065 ± 0.059 | 0.0035 ± 0.023 | 0.0135 ± 0.019 | -0.036 ± 0.0057 | -0.075 ± 0.013 | -0.059 ± 0.038 | -0.009 ± 0.0042 | -0.0085 ± 0.0078 | -0.006 ± 0.025 | 0.0025 ± 0.019 | 0.0035 ± 0.011 | 0.0025 ± 0.029
10 | KF3CT:MMP-9 | -0.006 ± 0.0042 | 0.0165 ± 0.013 | 0.012 ± 0.03 | 0.009 ± 0.027 | -0.013 ± 0.0071 | -0.0065 ± 0.005 | -0.01 ± 0.0028 | 0.001 ± 0.0028 | -0.001 ± 0.0042 | 0.003 ± 0.0042 | -0.01 ± 0.02 | -0.0045 ± 0.012 | -0.022 ± 0.013 | -0.0115 ± 0.0021 | -0.008 ± 0.013 | -0.0145 ± 0.005 | -0.0095 ± 0.0064 | -0.027 ± 0.0042 | -0.0365 ± 0.013
11 | KF3CT:PAI-I | 0.0115 ± 0.022 | 0.017 ± 0.021 | -0.004 ± 0.02 | 0.006 ± 0.0014 | 0.0075 ± 0.0021 | -0.0005 ± 0.0035 | -0.0045 ± 0.0021 | -0.009 ± 0.031 | -0.0125 ± 0.0021 | -0.004 ± 0.0071 | -0.017 ± 0.0071 | -0.005 ± 0.023 | -0.008 ± 0.0085 | -0.014 ± 0.048 | 0.003 ± 0.0099 | -0.007 ± 0.027 | -0.037 ± 0.035 | -0.055 ± 0.02 | -0.0595 ± 0.03
12 | KF3CT:SRB | 0.0005 ± 0.005 | 0.005 ± 0.013 | -0.0185 ± 0.0092 | -0.015 ± 0.011 | 0.0015 ± 0.015 | 0.0005 ± 0.00071 | 0.0095 ± 0.0021 | -0.0085 ± 0.00071 | -0.004 ± 0.0042 | 0.0015 ± 0.018 | -0.01 ± 0.0028 | -0.0095 ± 0.005 | -0.0205 ± 0.013 | 0.002 ± 0.0042 | 0 ± 0.0014 | 0 ± 0.0014 | 0.0025 ± 0.0035 | -0.001 ± 0.013 | 0.0085 ± 0.00071
13 | KF3CT:TIMP-2 | 0.0145 ± 0.03 | -0.0035 ± 0.0064 | 0.0115 ± 0.018 | -0.0195 ± 0.0064 | 0.0155 ± 0.011 | 0.002 ± 0.0057 | -0.007 ± 0.0042 | -0.002 ± 0.021 | -0.006 ± 0.0099 | -0.0025 ± 0.016 | 0.0145 ± 0.0021 | -0.0175 ± 0.0078 | -0.009 ± 0.023 | -0.0265 ± 0.005 | -0.0045 ± 0.029 | -0.0135 ± 0.022 | 0.0015 ± 0.0021 | 0.013 ± 0.018 | -0.0345 ± 0.005
14 | KF3CT:uPA | 0.0025 ± 0.018 | 0.006 ± 0.016 | 0.0105 ± 0.0092 | 0.009 ± 0.0085 | 0.0095 ± 0.0021 | 0.0015 ± 0.0078 | 0.0065 ± 0.00071 | -0.01 ± 0.017 | -0.0165 ± 0.0092 | -0.009 ± 0.0014 | -0.012 ± 0.0099 | 0.0155 ± 0.00071 | -0.0225 ± 0.00071 | -0.0275 ± 0.029 | -0.0215 ± 0.00071 | -0.0035 ± 0.00071 | 0.0065 ± 0.018 | 0.003 ± 0.016 | 0.0025 ± 0.0092
15 | MyoF:CD106/VCAM-1 | -0.007 ± 0.023 | -0.003 ± 0.0014 | 0.0035 ± 0.015 | 0.019 ± 0.0099 | 0.0025 ± 0.022 | 0.0025 ± 0.011 | 0.008 ± 0.0014 | -0.0005 ± 0.012 | -0.016 ± 0.0085 | -0.013 ± 0.0085 | -0.019 ± 0.0085 | -0.044 ± 0.027 | -0.101 ± 0.045 | -0.004 ± 0.0028 | 0.0085 ± 0.0021 | 0.0155 ± 0.016 | -0.013 ± 0.027 | -0.0105 ± 0.015 | -0.079 ± 0.03
